One may read the MIC as the lowest concentration that inhibits growth of the organism. Higher therefore signals weaker potency.

Values after ≈ are worked out from the molar mass of the structure shown.

Data set [1] deals with Mycobacterium tuberculosis. As to the kind of experiment: Antimycobacterial activity against Mycobacterium tuberculosis H37Rv by agar dilution method using double dilution technique. In kind it is functional.
Data set [2] relates to Vero. The data set is described as follows: Toxicity against Vero cells at 62.5 ug/ml after 72 hrs by MTT assay. The settings on record: chlorocebus sabaeus. Format: cell-based. (In general: Tetrazolium assays rely on reduction of a dye to a coloured formazan, in cell work by metabolically active cells.)

`O=S(=O)(c1ccc(NC(Cc2ccco2)n2nc(COc3ccccc3)oc2=S)cc1)c1ccc(NC(Cc2ccco2)n2nc(COc3ccccc3)oc2=S)cc1` (centres undefined) returned an MIC in data set [1] of 0.14 µM (≈ 0.119 µg/mL). Further, in data set [2], the Activity result is given as “Non-toxic”.

In turn, `O=S(=O)(c1ccc(NC(c2ccccc2)n2nc(COc3ccc4ccccc4c3)oc2=S)cc1)c1ccc(NC(c2ccccc2)n2nc(COc3ccc4ccccc4c3)oc2=S)cc1` (centres undefined) yielded an MIC in data set [1] of 0.42 µM (≈ 0.395 µg/mL). Besides, the Activity result in data set [2] was “Non-toxic”.

In turn, `O=S(=O)(c1ccc(NC(Cc2ccco2)n2nc(-c3ccc(Nc4ccccc4)cc3)oc2=S)cc1)c1ccc(NC(Cc2ccco2)n2nc(-c3ccc(Nc4ccccc4)cc3)oc2=S)cc1` (centres undefined) came in with an MIC in data set [1] of 0.66 µM (≈ 0.641 µg/mL). The Activity entry in data set [2] is “Non-toxic”.

`O=S(=O)(c1ccc(NC(Cc2ccco2)n2nc(COc3ccc4ccccc4c3)oc2=S)cc1)c1ccc(NC(Cc2ccco2)n2nc(COc3ccc4ccccc4c3)oc2=S)cc1` (centres undefined) displayed an MIC in data set [1] of 0.1 µM (≈ 0.0949 µg/mL). In addition, in data set [2], the Activity result was “Non-toxic”.

As to `O=S(=O)(c1ccc(NC(Cc2ccco2)n2nc(COc3cccc4ccccc34)oc2=S)cc1)c1ccc(NC(Cc2ccco2)n2nc(COc3cccc4ccccc34)oc2=S)cc1` (centres undefined), in data set [1], the MIC was determined as 0.72 µM (≈ 0.683 µg/mL). The Activity result in data set [2] was “Non-toxic”.

Take `O=S(=O)(c1ccc(NC(c2ccccc2)n2nc(-c3ccccc3)oc2=S)cc1)c1ccc(NC(c2ccccc2)n2nc(-c3ccccc3)oc2=S)cc1` (centres undefined): 1.72 µM (≈ 1.34 µg/mL) was the least that counted as inhibitory in data set [1] (MIC). The Activity entry in data set [2] is listed as “Non-toxic”.

`O=[N+]([O-])c1ccc(-c2nn(C(Nc3ccc(S(=O)(=O)c4ccc(NC(c5ccccc5)n5nc(-c6ccc([N+](=O)[O-])cc6)oc5=S)cc4)cc3)c3ccccc3)c(=S)o2)cc1` (centres undefined) displayed an MIC in data set [1] of 1.94 µM (≈ 1.69 µg/mL). Besides, the Activity result in data set [2] was “Non-toxic”.

In data set [1], `O=S(=O)(c1ccc(NC(c2ccccc2)n2nc(Cc3ccccc3)oc2=S)cc1)c1ccc(NC(c2ccccc2)n2nc(Cc3ccccc3)oc2=S)cc1` (centres undefined) had an MIC of 1.29 µM (≈ 1.04 µg/mL). For the same molecule, the Activity result in data set [2] is on record as “Non-toxic”.

Molecule `O=S(=O)(c1ccc(NC(c2ccccc2)n2nc(-c3ccc(Nc4ccccc4)cc3)oc2=S)cc1)c1ccc(NC(c2ccccc2)n2nc(-c3ccc(Nc4ccccc4)cc3)oc2=S)cc1` (centres undefined) registered an MIC in data set [1] of 1.65 µM (≈ 1.59 µg/mL). Besides, the Activity entry in data set [2] was “Non-toxic”.

With `O=S(=O)(c1ccc(NC(c2ccccc2)n2nc(COc3ccccc3)oc2=S)cc1)c1ccc(NC(c2ccccc2)n2nc(COc3ccccc3)oc2=S)cc1` (centres undefined), 0.98 µM (≈ 0.824 µg/mL) was the least that counted as inhibitory in data set [1] (MIC). Moreover, the Activity entry in data set [2] was “Non-toxic”.

With `NNC(=O)c1ccncc1` [ISONIAZID], it took 0.73 µM (≈ 0.1 µg/mL) to inhibit growth in data set [1] (MIC).

`O=S(=O)(c1ccc(NC(Cc2ccco2)n2nc(Cc3ccccc3)oc2=S)cc1)c1ccc(NC(Cc2ccco2)n2nc(Cc3ccccc3)oc2=S)cc1` (centres undefined) showed an MIC in data set [1] of 0.24 µM (≈ 0.196 µg/mL). Besides, the Activity result in data set [2] is “Non-toxic”.

Molecule `O=S(=O)(c1ccc(NC(Cc2ccco2)n2nc(-c3ccccc3)oc2=S)cc1)c1ccc(NC(Cc2ccco2)n2nc(-c3ccccc3)oc2=S)cc1` (centres undefined) came in with an MIC in data set [1] of 0.94 µM (≈ 0.742 µg/mL). Further, the Activity result in data set [2] is reported as “Non-toxic”.

Molecule `O=[N+]([O-])c1ccc(-c2nn(C(Cc3ccco3)Nc3ccc(S(=O)(=O)c4ccc(NC(Cc5ccco5)n5nc(-c6ccc([N+](=O)[O-])cc6)oc5=S)cc4)cc3)c(=S)o2)cc1` (centres undefined) had an MIC in data set [1] of 0.42 µM (≈ 0.369 µg/mL). In data set [2], the Activity result is recorded as “Non-toxic”.

For the molecule `O=S(=O)(c1ccc(NC(c2ccccc2)n2nc(COc3cccc4ccccc34)oc2=S)cc1)c1ccc(NC(c2ccccc2)n2nc(COc3cccc4ccccc34)oc2=S)cc1` (centres undefined), 0.96 µM (≈ 0.903 µg/mL) was the least that counted as inhibitory in data set [1] (MIC). The Activity result in data set [2] is listed as “Non-toxic”.

These data come from ChEMBL document CHEMBL1148026, “Oxadiazole mannich bases: synthesis and antimycobacterial activity” (Bioorg Med Chem Lett, 2007).
